Test results taken from article PMC7615501 (Journal of immunology (Baltimore, Md. : 1950), 2021).

Columns and labels:
CD8+ T cell clone 6C5 [1] = experiment: Activation of clone 6C5 by peptide-pulsed T2 cells, MIP-1β ELISA; assay type: cell-based, human; settings: high purity (>95%) peptide preparations
CD8+ T cell clone 6C5 [2] = settings: earlier work; cited from earlier work
HLA-A*0201 = HLA-A*0201 (Homo sapiens, UniProt P04439, D140Y/D185E/D98H/E176V/E277Q/G131W/G231S/I119V/I121R/I166T/I218V/L300P/L318F/N151K/N90K/P208A/P217A/Q86G/Q94H/R138H/R169H/T345S); settings: earlier work; cited from earlier work

| Substance | Functional response of clone 6C5, retest with high purity preparations (CD8+ T cell clone 6C5 [1]) | Recognition by CD8+ T cell clone 6C5 (CD8+ T cell clone 6C5 [2]) | Binding to HLA-A*0201 (HLA-A*0201) |
| --- | --- | --- | --- |
| FMAYFGVSA | inert | – | – |
| LLSY(3-tBu)FGTPT | – | recognize | bound poorly to HLA-A*0201 |
| LTAYMLLAI | inert | – | – |
